Measurements published in patent US10899910B2, “Quaternary cationic polymers” (ECOLAB USA, INC., priority 2016, dated 2021).

Assays:
[1] = test system: mixture of aerobic populations from more than 30 cooling systems in North America; assay: Non-oxidative antimicrobial efficiency test in cooling water (ASTM E645-02a); assay type: cell-based, bacteria (specific species not identified); conditions: at the tested concentrations
Procedure: Antimicrobial efficiency of the synthesized compounds was tested using a non-oxidative antimicrobial efficiency test procedure according to ASTM method for microbiocide efficiency in cooling water (E645-02a, 2005). The bacteria used in the efficacy testing comprised a mixture of aerobic populations from more than 30 cooling systems in North America. The specific species were not identified. Those species were grown on R2A agar.
In one experiment, various concentrations (0 ppm, 5 ppm, 10 ppm, 20 ppm, 30 ppm, 40 ppm, and 50 ppm) of Compound 1 were applied to bacteria in water. The log 10 concentration in colony forming units (CFU/ml) was measured at four time points (0 min, 60 min, 240 min, and 1440 min).
The microbial activity of Compounds 1-4 at a concentration of 50 ppm was tested according to the same procedure described above.
The antimicrobial activity of Compound 4 was tested using the same procedures as described above.

[2] = test system: bacterial spores or thermophiles; assay: Anti-spore and anti-thermophile activity; assay type: cell-based; conditions: about 20 ppm; for Log Reduction: vs control
Procedure: The effect of the compounds on bacterial spores or thermophiles was also tested. Compounds 1 and 4 were incubated separately with spores or thermophiles at a concentration of about 20 ppm, and the reduction in concentration was measured at four time points (See Table 3).

[3] = test system: collection of aerobic bacteria from 30 water samples in cooling towers across North America; assay: Biofilm reduction (biofilm inhibition test, stain absorbance at 590 nm); assay type: cell-based; conditions: for (Comp. - Single Quat 2)*100 / Single Quat 2: biofilm reduction relative to Single Quat 2
Procedure: Biofilm reduction experiments were conducted to test the efficacy of multi-quaternary cationic polymers compared to single quaternary compounds. Two different compositions were prepared containing single quaternary compounds: a composition (Single Quat 1) comprising about 50% by weight bisoctyl dimethyl ammonium chloride (CAS #5538-94-3) and about 5-10% by weight glycerin; and a composition (Single Quat 2) comprising about 50% by weight didecyl-dimethyl ammonium chloride (CAS #7173-51-5) and about 10-30% by weight ethanol. The test bacteria comprised a collection of aerobic bacteria from 30 water samples in cooling towers across North America. Different concentrations of cationic polymer salts and single quaternary compounds were tested ranging from about 0.8 ppm to about 1000 ppm. Using the biofilm inhibition test protocols, the absorbed stains were extracted and absorbance was measured at 590 nm. The biofilm reduction was calculated by comparing the absorbance of treated vs untreated controls, then averaged over six replicates.

[4] = Corrosion bubble cell test (Linear Polarization Resistance); conditions: 2 ppm with 1% 2ME synergist; CO2-saturated brine/hydrocarbon, 80° C.; three hours baseline (Tables 8, 9)
Procedure: (§1) Cationic polymer salts were evaluated for corrosion performance as compared to a C12-C18 alkyl dimethyl benzyl ammonium chloride via a bubble test procedure. The bubble test simulates low flow areas where little or no mixing of water and oil occurs. The test was conducted using brine (80% of the brine being 3% sodium chloride brine and 20% of the brine being a hydrocarbon containing 75% LVT-200 kerosene oil and 25% xylene). The brine was placed into kettles and purged with carbon dioxide. The brine was continually purged with carbon dioxide to saturate the brine prior to starting the test. After the test began, the test cell was blanketed with carbon dioxide one hour prior to electrode insertion and through the duration of the test to maintain saturation. The kettles were stirred at 150 revolutions per minute (rpm) for the duration of the test to maintain thermal equilibrium at 80° C. The corrosion rate was measured by Linear Polarization Resistance (LPR) techniques. The working electrode used was carbon steel. The counter and reference electrodes were both 1018 carbon steel. The electrodes were all cleaned and polished prior to testing. Data were collected for three hours before 20 ppm of each of the compositions (containing 2 ppm of each of various pentaquaternary cationic polymer salts or the comparative C12-C18 alkyl dimethyl benzyl ammonium chloride and 1% 2-mercaptoethanol (2ME) as synergist in an organic solvent) was dosed into its respective cell. Data were collected overnight. A low concentration of the compositions was used to differentiate between the compositions.
Corrosion bubble cell tests were performed according to the method of Example A1 to evaluate a hexaquaternary cationic polymer salt for corrosion performance as compared to a C12-C18 alkyl dimethyl benzyl ammonium chloride. Data were collected for three hours before 20 ppm of each of the compositions (containing 2 ppm of a hexaquaternary cationic polymer salt or the comparative C12-C18 alkyl dimethyl benzyl ammonium chloride and 1% 2ME as synergist in an organic solvent) was dosed into its respective cell. Data were collected overnight. A low concentration of the compositions was used to differentiate between the compositions.
as §1, with “six” for “three”, “polyethyleneimine-based” for “pentaquaternary”, “cell. However, for the comparative composition, data was only collected three hours before addition of the compositions.” for “cell.”

[5] = Surface tension measurement (Tracker tensiometer); assay type: physicochemical; conditions: room temperature
Procedure: Surface tension measurements were conducted on a Tracker tensiometer (Teclis Instruments) at room temperature. Various concentrations of surfactant solutions were prepared and measurements were conducted.
The surface tension as a function of concentration of the cationic surfactant samples were measured and are listed in Table 2, where NT means not tested.

CCCCCCCCCCCCCCCCCC[N+](C)(C)CC(O)CN(CCN(CC(O)C[N+](C)(C)C)CC(O)C[N+](C)(C)CCCCCCCCCCCCCCCCCC)CCN(CC(O)C[N+](C)(C)C)CC(O)C[N+](C)(C)CCCCCCCCCCCCCCCCCC.[Cl-].[Cl-].[Cl-].[Cl-].[Cl-] (centres unmarked) [Compound 4]
antimicrobial activity [1]: significant antimicrobial activity
Log cfu/ml ([2]; contact time 0 min): 2.53 Log cfu/ml
Log Reduction ([2]; contact time 0 min): −0.04
Log cfu/ml ([2]; contact time 60 min): 1.6 Log cfu/ml
Log Reduction ([2]; contact time 60 min): 0.74
Log cfu/ml ([2]; contact time 240 min): 0.00 Log cfu/ml
Log Reduction ([2]; contact time 240 min): 2.48
Log cfu/ml ([2]; contact time 1440 min): 1.78 Log cfu/ml
Log Reduction ([2]; contact time 1440 min): 0.75

CCCCCCCCCCCCCCCCCC[N+](C)(C)CC(O)CN(CCN(CCN(CC(O)C[N+](C)(C)C)CC(O)C[N+](C)(C)CCCCCCCCCCCCCCCCCC)CC(O)C[N+](C)(C)C)CC(O)C[N+](C)(C)C.[Cl-].[Cl-].[Cl-].[Cl-].[Cl-] (centres unmarked) [Compound 9]
Biofilm reduction ([3]; active conc. 0.8 ppm): 20.5%
(Comp. - Single Quat 2)*100 / Single Quat 2 ([3]; active conc. 0.8 ppm): 314.7%
Biofilm reduction ([3]; active conc. 1.6 ppm): 35.9%
(Comp. - Single Quat 2)*100 / Single Quat 2 ([3]; active conc. 1.6 ppm): −9.6%
Biofilm reduction ([3]; active conc. 3.0 ppm): 41.2%
(Comp. - Single Quat 2)*100 / Single Quat 2 ([3]; active conc. 3.0 ppm): −43.2%
Biofilm reduction ([3]; active conc. 6.0 ppm): 45.4%
(Comp. - Single Quat 2)*100 / Single Quat 2 ([3]; active conc. 6.0 ppm): −11.1%
Biofilm reduction ([3]; active conc. 8.0 ppm): 62.6%
(Comp. - Single Quat 2)*100 / Single Quat 2 ([3]; active conc. 8.0 ppm): −8.6%
Biofilm reduction ([3]; active conc. 12.0 ppm): 70.9%
(Comp. - Single Quat 2)*100 / Single Quat 2 ([3]; active conc. 12.0 ppm): −13.2%
Biofilm reduction ([3]; active conc. 16.0 ppm): 79.0%
(Comp. - Single Quat 2)*100 / Single Quat 2 ([3]; active conc. 16.0 ppm): −15.5%
Biofilm reduction ([3]; active conc. 25.0 ppm): 76.8%
(Comp. - Single Quat 2)*100 / Single Quat 2 ([3]; active conc. 25.0 ppm): −15.9%
Biofilm reduction ([3]; active conc. 31.0 ppm): 46.9%
(Comp. - Single Quat 2)*100 / Single Quat 2 ([3]; active conc. 31.0 ppm): −50.8%
Biofilm reduction ([3]; active conc. 50.0 ppm): 77.6%
(Comp. - Single Quat 2)*100 / Single Quat 2 ([3]; active conc. 50.0 ppm): −15.9%
Biofilm reduction ([3]; active conc. 62.0 ppm): 90.7%
(Comp. - Single Quat 2)*100 / Single Quat 2 ([3]; active conc. 62.0 ppm): −0.4%
Biofilm reduction ([3]; active conc. 100.0 ppm): 97.3%
(Comp. - Single Quat 2)*100 / Single Quat 2 ([3]; active conc. 100.0 ppm): 41.9%
Biofilm reduction ([3]; active conc. 125.0 ppm): 98.9%
(Comp. - Single Quat 2)*100 / Single Quat 2 ([3]; active conc. 125.0 ppm): 88.6%
Biofilm reduction ([3]; active conc. 250.0 ppm): 99.5%
(Comp. - Single Quat 2)*100 / Single Quat 2 ([3]; active conc. 250.0 ppm): 55.3%
Biofilm reduction ([3]; active conc. 500.0 ppm): 99.6%
(Comp. - Single Quat 2)*100 / Single Quat 2 ([3]; active conc. 500.0 ppm): 23.7%
Biofilm reduction ([3]; active conc. 1000.0 ppm): 99.6%
(Comp. - Single Quat 2)*100 / Single Quat 2 ([3]; active conc. 1000.0 ppm): 33.5%
reduction in biofilm formation ([3]; at concentrations about 100 ppm): greater than 95%
% Protection [4]: 60%
Surface tension ([5]; concentration 0.010 %): 73.11 mN/m
Surface tension ([5]; concentration 0.025 %): 69.16 mN/m
Surface tension ([5]; concentration 0.050 %): 60.77 mN/m
Surface tension ([5]; concentration 0.100 %): 54.69 mN/m
Surface tension ([5]; concentration 0.200 %): 52.05 mN/m
Surface tension ([5]; concentration 0.500 %): 50.09 mN/m
Surface tension ([5]; concentration 1.000 %): 49.38 mN/m
